Values of other authors, collected in Sander's compilation of Henry's law constants.
“And” between values parts separate entries of the source, which are not always exact repeats. Identical values can stand only once.

Assay: Henry solubility constant Hcp at 298.15 K (mol/(m3 Pa))
Details: cited value
[1] = reference: Burkholder et al. (2015)
[2] = reference: Burkholder et al. (2019)
[3] = reference: Sander et al. (2011)
[4] = reference: Fogg and Sangster (2003)
[5] = reference: Sander et al. (2006)
[6] = reference: Gaffney and Senum (1984)
[7] = reference: Hine and Weimar (1965)
[8] = reference: Plyasunov et al. (2006)
[9] = reference: Barcelo and Hennion (1997)
[10] = reference: Wania and Dugani (2003)
[11] = reference: Mackay et al. (1992b)

CCOC=O [ethyl methanoate]
Henry solubility constant Hcp (reference: Brockbank (2013)): 0.033
Henry solubility constant Hcp [1]: 0.034
Henry solubility constant Hcp [2]: 0.034
Henry solubility constant Hcp [3]: 0.034

Cc1cccc(C)c1C [1,2,3-trimethylbenzene]
Henry solubility constant Hcp (reference: Brockbank (2013)): 0.0024
Henry solubility constant Hcp [4]: 0.0027

OCOO [hydroxymethyl hydroperoxide]
Henry solubility constant Hcp [1]: 17000
Henry solubility constant Hcp [2]: 17000
Henry solubility constant Hcp [5]: 17000
Henry solubility constant Hcp [3]: 17000

CCCCCCCCCC=O [decanal]
Henry solubility constant Hcp (reference: Brockbank (2013)): 0.0063

CC(=O)OC(C)C [2-propyl ethanoate]
Henry solubility constant Hcp (reference: Brockbank (2013)): 0.033

CC(C)c1nn(C(=O)NC(C)(C)C)c(=O)n1N [amicarbazone]
Henry solubility constant Hcp (reference: MacBean (2012b)): 1.5e+07

CCOCCOC(C)=O [2-ethoxyethyl ethanoate]
Henry solubility constant Hcp (reference: Brockbank (2013)): 3

FC(F)(F)C(F)(F)C(F)(F)C(F)(F)C(F)(F)F [dodecafluoropentane]
Henry solubility constant Hcp (reference: Brockbank (2013)): 4.6e-08

COC(C)=O [methyl ethanoate]
Henry solubility constant Hcp (reference: Brockbank (2013)): 0.085
Henry solubility constant Hcp [2]: 0.085

NC1CCCCC1 [cyclohexanamine]
Henry solubility constant Hcp (reference: Brockbank (2013)): 2.2

Cc1cccc(O)c1C [1-hydroxy-2,3-dimethylbenzene]
Henry solubility constant Hcp (reference: Brockbank (2013)): 6.7

CC(=O)C(C)(C)C [3,3-dimethyl-2-butanone]
Henry solubility constant Hcp (reference: Brockbank (2013)): 0.043

Oc1ccc(Cl)cc1Cl [2,4-dichlorophenol]
Henry solubility constant Hcp (reference: Goldstein (1982)): 1.5

CC(C)CC(C)O (stereo unspecified) [4-methyl-2-pentanol]
Henry solubility constant Hcp (reference: Brockbank (2013)): 0.22

C#CCCCCC [1-heptyne]
Henry solubility constant Hcp (reference: Brockbank (2013)): 0.00018

CCCCCCCCc1ccccc1 [octylbenzene]
Henry solubility constant Hcp (reference: Brockbank (2013)): 0.00018

CC#N [ethanenitrile]
Henry solubility constant Hcp (reference: Arijs and Brasseur (1986)): 0.47
Henry solubility constant Hcp (reference: Brockbank (2013)): 0.49
Henry solubility constant Hcp [1]: 0.52
Henry solubility constant Hcp [2]: 0.52
Henry solubility constant Hcp [4]: 0.5
Henry solubility constant Hcp [6]: 0.29
Henry solubility constant Hcp [7]: 0.29
Henry solubility constant Hcp [8]: 0.38
Henry solubility constant Hcp [5]: 0.52
Henry solubility constant Hcp [3]: 0.52

O=Cc1ccccc1 [benzaldehyde]
Henry solubility constant Hcp (reference: Brockbank (2013)): 0.4
Henry solubility constant Hcp [6]: 0.36

CCCOCCC [dipropyl ether]
Henry solubility constant Hcp (reference: Brockbank (2013)): 0.0029

[Ar] [argon]
Henry solubility constant Hcp (reference: Clever (1980)): 1.4e-05

Cc1ccc(C)c(C)c1 [1,2,4-trimethylbenzene]
Henry solubility constant Hcp (reference: Brockbank (2013)): 0.0016
Henry solubility constant Hcp [4]: 0.0017

C=CCSC [allyl methyl sulfide]
Henry solubility constant Hcp [1]: 0.0042
Henry solubility constant Hcp [2]: 0.0042

ClC(Cl)(Cl)C(Cl)(Cl)Cl [hexachloroethane]
Henry solubility constant Hcp (reference: Brockbank (2013)): 0.0028
Henry solubility constant Hcp [1]: 0.0026
Henry solubility constant Hcp [2]: 0.0027
Henry solubility constant Hcp (reference: Goldstein (1982)): 0.001

ClC1C(Cl)C(Cl)C(Cl)C(Cl)C1Cl (stereo not drawn) [α-1,2,3,4,5,6-hexachlorocyclohexane]
Henry solubility constant Hcp (reference: Xiao et al. (2004)): 1.5 and 1.4

COC(F)(F)C(Cl)Cl [2,2-dichloro-1,1-difluoro-1-methoxyethane]
Henry solubility constant Hcp [4]: 0.0029

COc1ccc(NC(=O)N(C)C)cc1Cl [metoxuron]
Henry solubility constant Hcp [9]: 6.6

CCCOC=O [propyl methanoate]
Henry solubility constant Hcp (reference: Brockbank (2013)): 0.031
Henry solubility constant Hcp [1]: 0.026
Henry solubility constant Hcp [2]: 0.026
Henry solubility constant Hcp [3]: 0.026

CCCCCC(C)O (stereo unspecified) [2-heptanol]
Henry solubility constant Hcp (reference: Brockbank (2013)): 0.33

Brc1ccc(Oc2ccc(Br)cc2Br)cc1 [2,4,4'-tribromodiphenyl ether]
Henry solubility constant Hcp [10]: 0.52

O=[N+]([O-])c1cccc(O)c1 [3-nitrophenol]
Henry solubility constant Hcp [6]: 4900

ClN(Cl)Cl [nitrogen trichloride]
Henry solubility constant Hcp [1]: 0.00099
Henry solubility constant Hcp [2]: 0.00099
Henry solubility constant Hcp [5]: 0.00099
Henry solubility constant Hcp [3]: 0.00099

c1ccc(Cc2ccccc2)cc1 [diphenylmethane]
Henry solubility constant Hcp [11]: 1

CC(C)Nc1nc(Cl)nc(NC(C)C)n1 [propazine]
Henry solubility constant Hcp [9]: 99

Clc1ccc(-c2ccc(Cl)cc2)cc1 [4,4'-dichlorobiphenyl]
Henry solubility constant Hcp (reference: Murphy et al. (1983b)): 0.033

CN=C=S [methyl isothiocyanate]
Henry solubility constant Hcp [1]: 0.17
Henry solubility constant Hcp [2]: 0.17
Henry solubility constant Hcp [3]: 0.17

CC(C)(C)C(O)(CCc1ccc(Cl)cc1)Cn1cncn1 (stereo unspecified) [tebuconazole]
Henry solubility constant Hcp [9]: 1100

N#Cc1ccccc1 [benzenenitrile]
Henry solubility constant Hcp (reference: Brockbank (2013)): 0.35

c1cc2c3c(cccc3c1)CC2 [acenaphthene]
Henry solubility constant Hcp (reference: Brockbank (2013)): 0.072
Henry solubility constant Hcp [4]: 0.055
Henry solubility constant Hcp (reference: Goldstein (1982)): 0.041
Henry solubility constant Hcp (reference: HSDB (2015)): 0.064
Henry solubility constant Hcp (reference: McCarty (1980)): 0.052

[Hg+2].[OH-].[OH-] [mercury dihydroxide]
Henry solubility constant Hcp (reference: Lindqvist and Rodhe (1985)): 130
Henry solubility constant Hcp (reference: WHO (1990)): 130

CCC(CC)Nc1c([N+](=O)[O-])cc(C)c(C)c1[N+](=O)[O-] [penoxaline]
Henry solubility constant Hcp [9]: 0.0026

O=C(O)C(Cl)(Cl)Cl [trichloroethanoic acid]
Henry solubility constant Hcp [1]: 730
Henry solubility constant Hcp [2]: 730
Henry solubility constant Hcp [3]: 730

COc1ccccc1 [methoxybenzene]
Henry solubility constant Hcp (reference: Brockbank (2013)): 0.029
Henry solubility constant Hcp [7]: 0.0023

Nc1ccccc1Cl [1-amino-2-chlorobenzene]
Henry solubility constant Hcp (reference: Brockbank (2013)): 1.9

CCC1CCCCC1 [ethylcyclohexane]
Henry solubility constant Hcp (reference: Brockbank (2013)): 2.1e-05

CCC(C)(C)C [2,2-dimethylbutane]
Henry solubility constant Hcp (reference: Brockbank (2013)): 5.7e-06

O=NO [nitrous acid]
Henry solubility constant Hcp (reference: Schwartz and White (1981)): 0.48

Cc1nnc(-c2ccccc2)c(=O)n1N [metamitron]
Henry solubility constant Hcp [9]: 1e+06

Nc1ccc(-c2ccc(N)c(Cl)c2)cc1Cl [3,3'-dichloro-(1,1'-biphenyl)-4,4'-diamine]
Henry solubility constant Hcp (reference: Mackay et al. (1995)): 12

Brc1ccc(Oc2c(Br)cc(Br)cc2Br)c(Br)c1 [2,2',4,4',6-pentabromodiphenyl ether]
Henry solubility constant Hcp [10]: 2.6

CCC/C=C(/C=O)CC [2-ethyl-2-hexenal]
Henry solubility constant Hcp (reference: Brockbank (2013)): 0.052

CC(C)C(C)C(C)C [2,3,4-trimethylpentane]
Henry solubility constant Hcp (reference: Brockbank (2013)): 3.3e-06

c1ccc2[nH]ccc2c1 [indole]
Henry solubility constant Hcp (reference: Howard and Meylan (1997)): 15

CC(C)Br [2-bromopropane]
Henry solubility constant Hcp (reference: Brockbank (2013)): 0.0009

Cc1cccc(C)n1 [2,6-dimethylpyridine]
Henry solubility constant Hcp (reference: Brockbank (2013)): 0.92

Cc1cccs1 [2-methylthiophene]
Henry solubility constant Hcp (reference: Brockbank (2013)): 0.0041

C=CCCC [1-pentene]
Henry solubility constant Hcp (reference: Brockbank (2013)): 3e-05

CCCCCCCCO [1-octanol]
Henry solubility constant Hcp (reference: Brockbank (2013)): 0.34

C1=CCCCC1 [cyclohexene]
Henry solubility constant Hcp (reference: Brockbank (2013)): 0.00029

Clc1ccccc1 [chlorobenzene]
Henry solubility constant Hcp (reference: Brockbank (2013)): 0.0026
Henry solubility constant Hcp (reference: Goldstein (1982)): 0.0025

Brc1ccc(Oc2ccc(Br)cc2Br)c(Br)c1 [2,2',4,4'-tetrabromodiphenyl ether]
Henry solubility constant Hcp [10]: 0.9

c1ccc(CCc2ccccc2)cc1 [1,2-diphenylethane]
Henry solubility constant Hcp [11]: 0.059

[O][Cl+][O-] [chlorine dioxide]
Henry solubility constant Hcp [1]: 0.01
Henry solubility constant Hcp [2]: 0.01
Henry solubility constant Hcp [5]: 0.01
Henry solubility constant Hcp [3]: 0.01
Henry solubility constant Hcp (reference: Young (1983)): 0.01

[Rn] [radon]
Henry solubility constant Hcp (reference: Clever (1979b)): 9.1e-05

COP(=O)(OC)C(O)C(Cl)(Cl)Cl (stereo unspecified)
Henry solubility constant Hcp [9]: 5800

N#CCCCCC#N [hexanedinitrile]
Henry solubility constant Hcp [8]: 1500

CS(C)=O [dimethylsulfoxide]
Henry solubility constant Hcp (reference: Betterton (1992)): 14
Henry solubility constant Hcp (reference: Brockbank (2013)): 8000
Henry solubility constant Hcp [1]: 980
Henry solubility constant Hcp [2]: 980
Henry solubility constant Hcp [5]: 980
Henry solubility constant Hcp [3]: 980

ClC=C(Cl)Cl [trichloroethene]
Henry solubility constant Hcp (reference: Brockbank (2013)): 0.001
Henry solubility constant Hcp [1]: 0.0011
Henry solubility constant Hcp [2]: 0.0011
Henry solubility constant Hcp [4]: 0.001
Henry solubility constant Hcp (reference: Goldstein (1982)): 0.00088

CCC(C)O (stereo unspecified) [2-butanol]
Henry solubility constant Hcp (reference: Brockbank (2013)): 0.95
Henry solubility constant Hcp [1]: 1.1
Henry solubility constant Hcp [2]: 1.1
Henry solubility constant Hcp [4]: 1
Henry solubility constant Hcp [5]: 1.1
Henry solubility constant Hcp [3]: 1.1

[He] [helium]
Henry solubility constant Hcp (reference: Clever (1979a)): 3.8e-06
Henry solubility constant Hcp (reference: Himmelblau (1960)): 3.7e-06

Cc1ccc(N=CN(C)C=Nc2ccc(C)cc2C)c(C)c1 [amitraz]
Henry solubility constant Hcp (reference: MacBean (2012b)): 1

CCCCI [1-iodobutane]
Henry solubility constant Hcp (reference: Brockbank (2013)): 0.00069

Cc1cccc(C)c1N(Cn1cccn1)C(=O)CCl [metazachlor]
Henry solubility constant Hcp [9]: 13

O=C(Nc1ccccc1)Nc1ccnc(Cl)c1 [forchlorfenuron]
Henry solubility constant Hcp (reference: MacBean (2012b)): 3.5e+06

Cc1ccc([N+](=O)[O-])cc1 [4-nitrotoluene]
Henry solubility constant Hcp (reference: Brockbank (2013)): 0.89
Henry solubility constant Hcp (reference: Goldstein (1982)): 0.16

CC(C)COC(=O)C(C)C [2-methylpropyl 2-methylpropanoate]
Henry solubility constant Hcp (reference: Brockbank (2013)): 0.0074

O=C=S [carbon oxide sulfide]
Henry solubility constant Hcp [1]: 0.0002
Henry solubility constant Hcp [2]: 0.0002
Henry solubility constant Hcp [5]: 0.0002
Henry solubility constant Hcp [3]: 0.0002

CCCCCCCO [1-heptanol]
Henry solubility constant Hcp (reference: Brockbank (2013)): 0.53

CC(C)SC(C)C [di-(2-propyl)-sulfide]
Henry solubility constant Hcp (reference: Brockbank (2013)): 0.0028
